Patent publication US12357698B1, “FUS proteolysis-targeting chimera, preparation method and applications thereof” (SHANDONG NORMAL UNIVERSITY, priority 2024, dated 2025)
Residue numbers refer to the chain shown, from its start.

How the values were obtained:
Format in all cases: cell-based
FUS protein [1] = target: T1, FUS protein (Homo sapiens, UniProt P35637); test: FUS degradation in SH-SY5Y cells, Western blot; details: concentration gradient 9.4-125 nM, liposome transfection, 24 hours
T1 construct: endogenous in cells; host or cells: SH-SY5Y cells
T1 sequence (P35637 1-526): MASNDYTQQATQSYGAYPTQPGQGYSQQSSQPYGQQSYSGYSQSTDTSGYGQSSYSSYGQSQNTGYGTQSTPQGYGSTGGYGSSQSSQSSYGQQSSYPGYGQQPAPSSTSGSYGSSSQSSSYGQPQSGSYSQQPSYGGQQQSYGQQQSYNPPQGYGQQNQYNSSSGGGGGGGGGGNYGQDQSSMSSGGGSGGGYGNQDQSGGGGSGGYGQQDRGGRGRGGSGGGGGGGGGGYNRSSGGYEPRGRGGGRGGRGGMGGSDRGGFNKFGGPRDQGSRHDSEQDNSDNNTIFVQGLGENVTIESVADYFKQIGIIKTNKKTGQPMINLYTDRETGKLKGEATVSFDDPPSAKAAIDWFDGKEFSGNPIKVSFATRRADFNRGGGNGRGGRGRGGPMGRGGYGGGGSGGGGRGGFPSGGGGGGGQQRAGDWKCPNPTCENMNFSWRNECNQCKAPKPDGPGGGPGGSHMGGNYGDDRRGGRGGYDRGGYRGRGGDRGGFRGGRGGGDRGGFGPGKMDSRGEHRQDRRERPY
Experimental: (§1) dFUS-C1 solutions were prepared at concentration gradients of 9.4 nM, 18.7 nM, 37.5 nM, 62.5 nM, and 125 nM, and were transfected into PC12 or SH-SY5Y cells using liposomes. After 24 hours, the cells were lysed, and changes in FUS protein were detected by Western blot.
Then 15% non-denaturing polyacrylamide gel electrophoresis was performed at 120 V for about 70 min, followed by staining with SYBR Gold nucleic acid gel stain, and finally imaged using a Bio-RAD instrument. […] For testing the FUS protein degradation performance of dFUS-PS, dFUS-PS solutions were prepared at concentration gradients of 9.4 nM, 18.7 nM, 37.5 nM, 62.5 nM, and 125 nM, and were transfected into SH-SY5Y cells using liposomes. After 24 hours, the cells were lysed, and changes in FUS protein were detected by Western blot.

FUS protein [2] = test: Proteomics before and after dFUS-C1 treatment
FUS-R521G = target: T2, FUS-R521G (Homo sapiens, UniProt P35637, R521G); test: Degradation of mutant FUS-R521G in 293T cells, Western blot; details: 1000 nM, 24 hours
T2 construct: expressed in transfected cells; host or cells: 293T cells
T2 sequence (P35637 1-526 R521G): T1 sequence (P35637 1-526) with R521G
Experimental: (§2) dFUS-C1 solutions were prepared at concentration gradients of 37.5 nM, 62.5 nM, 125 nM, 250 nM, 500 nM, 1000 nM, and 2000 nM, and were transfected into 293T cells expressing different mutant FUS proteins using liposomes. After 24 hours, the cells were lysed, and changes in FUS protein were detected by Western blot. FIG. 11A to FIG. 11E show the degradation of different mutant FUS by dFUS-C1 in 293T cells.

FUS-R521H = target: T3, FUS-R521H (Homo sapiens, UniProt P35637, R521H); test: Degradation of mutant FUS-R521H in 293T cells, Western blot; details: 1000 nM, 24 hours
T3 construct: expressed in transfected cells; host or cells: 293T cells
T3 sequence (P35637 1-526 R521H): T1 sequence (P35637 1-526) with R521H
Experimental: as §2

FUS-R521C = target: T4, FUS-R521C (Homo sapiens, UniProt P35637, R521C); test: Degradation of mutant FUS-R521C in 293T cells, Western blot; details: 1000 nM, 24 hours
T4 construct: expressed in transfected cells; host or cells: 293T cells
T4 sequence (P35637 1-526 R521C): T1 sequence (P35637 1-526) with R521C
Experimental: as §2

SH-SY5Y cells = test: Neurotoxicity caused by FUS overexpression (ROS, LDH release, CCK8); details: SH-SY5Y cells transfected with FUS plasmids, CCK8 cell viability
Experimental: In this example, ROS detection kit, LDH release detection kit, and CCK8 reagent were used for cytotoxicity detection. Specifically: 5×10^3 SH-SY5Y cells were added to 96-well plates and cultured at 37° C., 5% CO2 cell incubator for 12 hours; FUS plasmids were transfected into the wells, then the cells were cultured at 37° C., 5% CO2 cell incubator for 24 hours, indicated reagents were added to each well, and corresponding indicators were detected according to the kit instructions.

FUS-WT = target: T5, FUS-WT (Homo sapiens, UniProt P35637); test: Degradation of FUS-WT in 293T cells, Western blot; details: 1000 nM, 24 hours
T5 construct: expressed in transfected cells; host or cells: 293T cells
T5 sequence (P35637 1-526): T1 sequence (P35637 1-526)

FUS-P525L = target: T6, FUS-P525L (Homo sapiens, UniProt P35637, P525L); test: Degradation of mutant FUS-P525L in 293T cells, Western blot; details: 1000 nM, 24 hours
T6 construct: expressed in transfected cells; host or cells: 293T cells
T6 sequence (P35637 1-526 P525L): T1 sequence (P35637 1-526) with P525L
Experimental: as §2

FUS protein [3] = target: T7, FUS protein (Rattus norvegicus, UniProt Q5PQK2); test: FUS degradation in PC12 cells, Western blot; details: liposome transfection, 24 hours
T7 construct: endogenous in cells; host or cells: PC12 cells
T7 sequence (Q5PQK2 1-515): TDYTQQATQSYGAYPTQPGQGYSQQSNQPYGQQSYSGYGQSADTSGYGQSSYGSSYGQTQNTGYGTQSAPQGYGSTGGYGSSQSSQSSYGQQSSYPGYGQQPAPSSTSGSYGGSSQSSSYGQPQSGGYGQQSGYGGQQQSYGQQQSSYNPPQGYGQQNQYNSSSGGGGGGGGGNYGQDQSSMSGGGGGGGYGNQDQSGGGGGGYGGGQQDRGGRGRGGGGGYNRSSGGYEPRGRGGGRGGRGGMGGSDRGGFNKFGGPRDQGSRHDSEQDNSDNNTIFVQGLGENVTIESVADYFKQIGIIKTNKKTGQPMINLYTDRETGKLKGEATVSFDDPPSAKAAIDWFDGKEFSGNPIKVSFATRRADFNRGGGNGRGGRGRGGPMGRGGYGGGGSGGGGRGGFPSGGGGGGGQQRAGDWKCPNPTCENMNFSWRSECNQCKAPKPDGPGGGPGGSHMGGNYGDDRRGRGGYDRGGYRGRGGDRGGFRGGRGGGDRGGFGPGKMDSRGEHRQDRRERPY
Experimental: The 10 PROTACs were transfected into PC12 cells at a final concentration of 125 nM using liposomes. After 24 hours, the cells were lysed, and changes in FUS protein were detected by Western blot.
as §1

dFUS-C1: PROTAC obtained by coupling FUS-1 (N3-FUS-RNA #1, SEQ ID NO: 1) with CRBN ligand (GUUUGGUGAUGUUUGGUGAU; RNA, backbone not given here; 5' azide via C6 amino linker, click-coupled to CRBN ligand (PROTAC))
degradation of FUS protein (FUS protein [1]): could efficiently degrade FUS protein | specificity of degradation (proteomics) (FUS protein [2]): specific degradation effects on FUS protein | degradation of FUS-R521G (FUS-R521G): could efficiently degrade | degradation of FUS-R521H (FUS-R521H): could efficiently degrade | degradation of FUS-R521C (FUS-R521C): could efficiently degrade | neurotoxicity caused by FUS overexpression (SH-SY5Y cells): significantly inhibited the neurotoxicity caused by FUS overexpression | degradation of FUS-WT (FUS-WT): could efficiently degrade | degradation of FUS-P525L (FUS-P525L): could efficiently degrade | degradation of FUS protein (FUS protein [3]; 125 nM): stably and efficiently degrade FUS protein | degradation of FUS protein (FUS protein [3]; concentration gradient 9.4-125 nM): could efficiently degrade FUS protein
